{"source": "patent US12606571B2", "about": "“Macrocyclic compounds and uses thereof” (TURNING POINT THERAPEUTICS, INC., priority 2017, dated 2026)", "key": {"[1]": {"test_system": "MET phosphorylation and downstream signaling in SNU-5 cells", "assay": "Immunoblotting for cellular kinase phosphorylation, SNU-5", "format": "cell-based, human", "settings": "4 hour incubation", "procedure": "Half a million cells per well were seeded in 24 well plate for 24 hrs, and then treated with compounds for 4 hours. Cells were collected after treatment and lysed in RIPA buffer (50 mM Tris, pH 7.4, 150 mM NaCl, 1% NP-40, 0.5% Deoxycholate, 0.1% SDS) supplemented with 10 mM EDTA, 1× Halt protease and phosphatase inhibitors (Thermo Scientific). […] Membranes were incubated with chemiluminescent substrate for 5 min at room temperature (SuperSignal West Femto, Thermo Scientific). The chemiluminescent images were acquired with a C-DiGit Imaging System (LI-COR Biosciences). The relative density of the chemiluminescent bands were quantified via Image Studio Digits from LICOR. The half inhibitory concentration (IC50) value is calculated using non-linear regression analysis through GraphPad Prism software (GraphPad, Inc., San Diego, CA)."}, "[2]": {"test_system": "HCC827 cells", "assay": "Scratch wound healing assay, HCC827", "format": "cell-based, human", "settings": "36-48 hours treatment", "procedure": "MKN-45 or HCC827 cells were seeded in 24-well plate. After 12-24 hours, confluent cell monolayers were gently scraped with a sterile pipette tip to form a scratch. The plates were washed with fresh medium, and the cells were incubated with medium alone or medium containing various concentration of compounds. After 36-48 hours, the plates were examined and recorded by an EVOS FL microscopy (Life Technology) to monitor rescaling of the cell monolayer."}, "[3]": {"test_system": "HCC827 cells", "assay": "Apoptosis of HCC827 cells", "format": "cell-based, human", "settings": "48 hour incubation, combination with AZD9291"}, "[4]": {"test_system": "MKN-45 tumors", "assay": "MKN-45 gastric adenocarcinoma xenograft model", "format": "in vivo, mouse", "procedure": "MKN-45 and Ba/F3 ETV6-CSF1R cells were cultured using standard techniques in RPMI-1640 medium (Corning, Inc) with 10% fetal bovine serum (Thermo Fisher Scientific, Inc) at 37° C. in a humidified atmosphere with 5% CO2. For implantation, cells were harvested and pelleted by centrifugation at 250 g for 2 minutes. Cells were washed once and resuspended in serum-free medium supplemented with 50% matrigel (v/v).\nFemale athymic nude mice (5-8 weeks of age) were obtained from Charles River Laboratory and were housed in Innovive IVC disposable cages on HEPA filtered ventilated racks with ad libitum access to rodent chow and water. Five million cells in 100 μL serum-free medium supplemented with 50% matrigel (Corning, Inc) were implanted subcutaneously in the right flank region of the mouse. Tumor size and body weight were measured on designated days. Tumor size was measured with an electronic caliper and tumor volume was calculated as the product of length*width^2*0.5.\nThe Met gene amplification in MKN-45 cells underlies the molecular mechanism for tumor growth. Athymic nude mice bearing MKN-45 tumors (at the average tumor size of 210 mm^3) were dosed with Compound 5 orally BID for twelve days (FIG. 7). The control group of mice were given vehicle only. Tumor volume (TMV) was measured by caliper on the indicated days and is shown at mean±sem in FIG. 7. […] Tumor growth inhibition (TGI) was calculated as 100%*{1−[(TMVTreated Last Day of Treatment−TMVTreated First Day of Treatment)/(TMVControl on Last Day of Treatment−TMVControl on First Day of Treatment)]} when TMVTreated Last Day of Treatment≥TMVTreated First Day of Treatment. In the case of TMVTreated Last Day of Treatment<TMVTreated First Day of Treatment., tumor regression (REG) was calculated as 100%*(1−TMVTreated Last Day of Treatment/TMVTreated First Day of Treatment). […] Tumor size was reduced in 5 out 10 mice treated with Compound 5 at 10 mg/kg, BID and in 9 out of 10 mice treated with Compound 5 at 30 mg/kg."}}}
{"smiles": "CCN1Cc2c(ccc(F)c2C#N)O[C@@H](C)CNC(=O)c2c(N)nn3ccc1nc23", "note": "[Compound 5, (7S)-3-amino-14-ethyl-11-fluoro-7-methyl-4-oxo-4,5,6,7,13,14-hexahydro-1,15-ethenopyrazolo[4,3-f][1,4,8,10]benzoxatriazacyclotridecine-12-carbonitrile]", "values": [{"measurement": "MET phosphorylation (gel)", "setting": "[1]", "value": "inhibited"}, {"measurement": "cell migration of HCC827 cells, wound healing", "setting": "[2]", "value": "inhibited"}, {"measurement": "apoptosis of HCC827 cells", "setting": "[3]", "value": "synergized with AZD9291"}, {"measurement": "tumor growth inhibition (TGI)", "setting": "[4]; 3 mg/kg, BID, oral, twelve days", "value": 47, "unit": "%"}, {"measurement": "tumor regression (REG)", "setting": "[4]; 10 mg/kg, BID, oral, twelve days", "value": 6, "unit": "%"}, {"measurement": "mice with reduced tumor size", "setting": "[4]; 30 mg/kg", "value": "9 out of 10"}, {"measurement": "tumor regression (REG)", "setting": "[4]; 30 mg/kg, BID, oral, twelve days", "value": 44, "unit": "%"}, {"measurement": "mean tumor volume (TMV) compared to control group", "setting": "[4]; treated groups 3, 10, 30 mg/kg BID, p<0.05", "value": "significantly lower"}]}
